Assay results published in PMC11390321 (Cancer chemotherapy and pharmacology, 2024).
Read-outs that look alike come from different tables or passages of the source.

Format: in vivo, BALB/c mice
Details: for clearance: CL
[1] = BALB/c, mouse, bone marrow, iv, 20 mg/kg
[2] = BALB/c, mouse, brain, iv, 20 mg/kg
[3] = BALB/c, mouse, draining lymph node, iv, 20 mg/kg
[4] = BALB/c, mouse, esophagus, iv, 20 mg/kg
[5] = BALB/c, mouse, fat, iv, 20 mg/kg
[6] = BALB/c, mouse, heart, iv, 20 mg/kg
[7] = BALB/c, mouse, kidney, iv, 20 mg/kg
[8] = BALB/c, mouse, liver, iv, 20 mg/kg
[9] = BALB/c, mouse, lung, iv, 20 mg/kg
[10] = BALB/c, mouse, non-draining lymph node, iv, 20 mg/kg
[11] = BALB/c, mouse, plasma, iv, 20 mg/kg
[12] = BALB/c, mouse, red blood cells (RBC), iv, 20 mg/kg
[13] = BALB/c, mouse, skeletal muscle, iv, 20 mg/kg
[14] = BALB/c, mouse, small intestine, iv, 20 mg/kg
[15] = BALB/c, mouse, spinal cord, iv, 20 mg/kg
[16] = BALB/c, mouse, spleen, iv, 20 mg/kg
[17] = BALB/c, mouse, thymus, iv, 20 mg/kg
[18] = BALB/c, mouse, tumor (CT26), iv, 20 mg/kg
[19] = plasma, 20 mg/kg IV-ext, tumor-bearing mice
[20] = unchanged drug, 20 mg/kg IV-ext, tumor-bearing mice

## CNCc1ccc(-c2cc(-c3nc(-c4ccc(S(=O)(=O)C(C)C)cc4)cnc3N)on2)cc1 [berzosertib]
[1]
  AUC(0-inf): 1110 µg·h/mL
  Cmax: 164000 ng/mL
  Kp: 74.5
  Tmax: 60 min
BALB/c, mouse, bone marrow, iv, 20 mg/kg, AUC0-t, 20 mg/kg IV, 0–1440 min
  AUC(0-t): 1060 µg·h/mL
[2]
  AUC(0-inf): 4.52 µg·h/mL
  Cmax: 627 ng/mL
  Kp: 0.297
  Tmax: 15 min
BALB/c, mouse, brain, iv, 20 mg/kg, AUC0-t, 20 mg/kg IV, 0–1440 min
  AUC(0-t): 4.23 µg·h/mL
[3]
  AUC(0-inf): 87 µg·h/mL
  Cmax: 12900 ng/mL
  Kp: 5.7
  Tmax: 60 min
BALB/c, mouse, draining lymph node, iv, 20 mg/kg, AUC0-t, 20 mg/kg IV, 0–1440 min
  AUC(0-t): 80.3 µg·h/mL
[4]
  AUC(0-inf): 46.7 µg·h/mL
  Cmax: 12100 ng/mL
  Kp: 3.07
  Tmax: 30 min
BALB/c, mouse, esophagus, iv, 20 mg/kg, AUC0-t, 20 mg/kg IV, 0–1440 min
  AUC(0-t): 43.6 µg·h/mL
[5]
  AUC(0-inf): 25.2 µg·h/mL
  Cmax: 4280 ng/mL
  Kp: 1.59
  Tmax: 5 min
BALB/c, mouse, fat, iv, 20 mg/kg, AUC0-t, 20 mg/kg IV, 0–1440 min
  AUC(0-t): 22.6 µg·h/mL
[6]
  AUC(0-inf): 86.5 µg·h/mL
  Cmax: 31600 ng/mL
  Kp: 5.64
  Tmax: 5 min
BALB/c, mouse, heart, iv, 20 mg/kg, AUC0-t, 20 mg/kg IV, 0–1440 min
  AUC(0-t): 81.2 µg·h/mL
[7]
  AUC(0-inf): 873 µg·h/mL
  Cmax: 117000 ng/mL
  Kp: 57.7
  Tmax: 5 min
BALB/c, mouse, kidney, iv, 20 mg/kg, AUC0-t, 20 mg/kg IV, 0–1440 min
  AUC(0-t): 821 µg·h/mL
[8]
  AUC(0-inf): 387 µg·h/mL
  Cmax: 79800 ng/mL
  Kp: 25.5
  Tmax: 5 min
BALB/c, mouse, liver, iv, 20 mg/kg, AUC0-t, 20 mg/kg IV, 0–1440 min
  AUC(0-t): 363 µg·h/mL
[9]
  AUC(0-inf): 216 µg·h/mL
  Cmax: 45200 ng/mL
  Kp: 13.9
  Tmax: 5 min
BALB/c, mouse, lung, iv, 20 mg/kg, AUC0-t, 20 mg/kg IV, 0–1440 min
  AUC(0-t): 198 µg·h/mL
[10]
  AUC(0-inf): 116 µg·h/mL
  Cmax: 20700 ng/mL
  Kp: 7.79
  Tmax: 30 min
BALB/c, mouse, non-draining lymph node, iv, 20 mg/kg, AUC0-t, 20 mg/kg IV, 0–1440 min
  AUC(0-t): 111 µg·h/mL
[11]
  AUC(0-inf): 15.1 µg·h/mL
  Cmax: 13300 ng/mL
  Kp: 1
  Tmax: 5 min
  Vd: 11.7 L/kg
  half-life: 367 min
BALB/c, mouse, plasma, iv, 20 mg/kg, AUC0-t, 20 mg/kg IV-ext, tumor-bearing mice
  AUC(0-t): 14.2 µg·h/mL
BALB/c, mouse, plasma, iv, 20 mg/kg, AUC0-t, 20 mg/kg IV, 0–1440 min
  AUC(0-t): 14.2 µg·h/mL
BALB/c, mouse, plasma, iv, 20 mg/kg, AUC0–360, plasma, 20 mg/kg IV-ext, tumor-bearing mice
  AUC(0-t): 9.85 µg·h/mL
BALB/c, mouse, plasma, iv, 20 mg/kg, calculated using AUC0-∞, 20 mg/kg IV-ext, tumor-bearing mice
  clearance: 22.1 mL/min/kg
BALB/c, mouse, plasma, iv, 20 mg/kg, calculated using AUC0–360, 20 mg/kg IV-ext, tumor-bearing mice
  clearance: 33.8 mL/min/kg
[12]
  AUC(0-inf): 5.87 µg·h/mL
  Cmax: 1690 ng/mL
  Kp: 0.389
  Tmax: 5 min
BALB/c, mouse, red blood cells (RBC), iv, 20 mg/kg, AUC0-t, RBC, 20 mg/kg IV, 0–1440 min
  AUC(0-t): 5.53 µg·h/mL
[13]
  AUC(0-inf): 41.7 µg·h/mL
  Cmax: 9950 ng/mL
  Kp: 2.77
  Tmax: 15 min
BALB/c, mouse, skeletal muscle, iv, 20 mg/kg, AUC0-t, Sk. Muscle, 20 mg/kg IV, 0–1440 min
  AUC(0-t): 39.4 µg·h/mL
[14]
  AUC(0-inf): 209 µg·h/mL
  Cmax: 31300 ng/mL
  Kp: 12.7
  Tmax: 15 min
BALB/c, mouse, small intestine, iv, 20 mg/kg, AUC0-t, 20 mg/kg IV, 0–1440 min
  AUC(0-t): 181 µg·h/mL
[15]
  AUC(0-inf): 2.15 µg·h/mL
  Cmax: 307 ng/mL
  Kp: 0.14
  Tmax: 15 min
BALB/c, mouse, spinal cord, iv, 20 mg/kg, AUC0-t, 20 mg/kg IV, 0–1440 min
  AUC(0-t): 2 µg·h/mL
[16]
  AUC(0-inf): 306 µg·h/mL
  Cmax: 39000 ng/mL
  Kp: 20.6
  Tmax: 120 min
BALB/c, mouse, spleen, iv, 20 mg/kg, AUC0-t, 20 mg/kg IV, 0–1440 min
  AUC(0-t): 293 µg·h/mL
[17]
  AUC(0-inf): 92.9 µg·h/mL
  Cmax: 13500 ng/mL
  Kp: 5.94
  Tmax: 30 min
BALB/c, mouse, thymus, iv, 20 mg/kg, AUC0-t, 20 mg/kg IV, 0–1440 min
  AUC(0-t): 84.5 µg·h/mL
BALB/c, mouse, tumor (CT26), intravenous, 20 mg/kg
  Kp: 8.68
[18]
  AUC(0-inf): 140 µg·h/mL
  Cmax: 13100 ng/mL
  Tmax: 60 min
BALB/c, mouse, tumor (CT26), iv, 20 mg/kg, AUC0-t, 20 mg/kg IV, 0–1440 min
  AUC(0-t): 124 µg·h/mL
Plasma, 20 mg/kg IV, observed, mean (SD)
  Cmax: 13.3 (4.91) μg/mL
plasma, 20 mg/kg IV
  AUC0-∞: 906 µg·min/mL
  Tmax: 5 min
[19]
  AUC0-t/dose: 42.7
  AUC0-∞ /dose: 45.3
  AUC0–360/dose: 29.6
  AUCextrap: 5.75%
  Tlast: 1440 min
[20]
  0–24 h feces: 4.13 % dose
  0–24 h urine: 48.4 % dose
